Test results as given in patent US20240327393A1 (SIRONAX LTD., priority 2021, published 2024).

system: HT-1080 (ATCC, CCL-121) cells; experiment: HT-1080 cell viability assay with ferroptosis inducer RSL3 (Cell Titer-Glo); type: cell-based; details: HT-1080 cells treated with RSL3; 3-fold, 10-point dilution, 1.1 μM highest concentration; Table 3; read-out: EC50 (nM), ferroptosis inhibitory activity
How it was run: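 EC50 was derived by sigmoidal dose-response regression of CellTiter-Glo luminescence viability, expressed relative to untreated wells. Compounds were tested in a ten-point, threefold dilution series (highest 1.1 μM) in the presence of the ferroptosis inducer RSL3. HT-1080 cells had been seeded at 6000 per well and grown overnight first.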

Compound	EC50 [nM]
CC1CN(c2ccc(Nc3ccc4c(c3)nnn4C)cc2)CC(C)O1 (centres unmarked) [Compound 458, N-(4-(2,6-dimethylmorpholino)phenyl)-1-methyl-1H-benzo[d][1,2,3]triazol-5-amine]	0.1 to 100

same assay, conditions: Homo sapiens; HT-1080 cells treated with RSL3; 3-fold, 10-point dilution, 1.1 μM highest concentration; Table 2; read-out: EC50 (nM), ferroptosis inhibitory activity

Compound	EC50 [nM]
Cc1cc(Nc2ccc3c(c2)OCC(=O)N3C)cnc1N1CCC(C(F)(F)F)CC1 [Compound 142, 4-methyl-7-((5-methyl-6-(4-(trifluoromethyl)piperidin-1-yl)pyridin-3-yl)amino)-2H-benzo[b][1,4]oxazin-3(4H)-one]	0.1 to 100
CC1CCN(c2ccc(Nc3ccc4c(c3)CN(CC3CC3)C4=O)cc2)CC1 [Compound 184, 2-(cyclopropylmethyl)-5-((4-(4-methylpiperidin-1-yl)phenyl)amino) isoindolin-1-one]	0.1 to 100
CNCCn1c(=O)oc2ccc(Nc3ccc(N4CC(C)OC(C)C4)cc3)cc21 (centres unmarked) [Compound 427, 5-((4-(2,6-dimethylmorpholino)phenyl)amino)-3-(2-(methylamino)ethyl) benzo[d]oxazol-2(3H)-one]	0.1 to 100
CCCCOc1ccc(Nc2ccc3c(c2)OCC(=O)N3C)cc1 [Compound 5, 7-((4-butoxyphenyl)amino)-4-methyl-2H-benzo[b][1,4]oxazin-3(4H)-one]	0.1 to 100
Cc1nc(N2CCC(C(F)(F)F)CC2)ccc1Nc1ccc2c(c1)OCC(=O)N2C [Compound 26, 4-methyl-7-((2-methyl-6-(4-(trifluoromethyl)piperidin-1-yl)pyridin-3-yl)amino)-2H-benzo[b][1,4]oxazin-3(4H)-one]	0.1 to 100
CC1CCN(c2ccc(Nc3ccc4c(c3)C(C)(C)CN4C)cc2)CC1 [Compound 311, 1,3,3-trimethyl-N-(4-(4-methylpiperidin-1-yl)phenyl)indolin-5-amine]	0.1 to 100
NC(=O)CCN1C(=O)COc2cc(Nc3ccc(N4CCC(C(F)(F)F)CC4)cc3)ccc21 [Compound 15, 3-(3-oxo-7-((4-(4-(trifluoromethyl)piperidin-1-yl)phenyl)amino)-2,3-dihydro-4H-benzo[b][1,4]oxazin-4-yl)propanamide]	0.1 to 100
CC(=O)N1Cc2ccc(Nc3ccc(N4CCC(F)(F)CC4)cc3)cc2C1 [Compound 166, 1-(5-((4-(4,4-difluoropiperidin-1-yl)phenyl)amino)isoindolin-2-yl) ethan-1-one]	0.1 to 100
COc1ncc(Nc2ccc3c(c2)n(C)c(=O)n3C)cn1 [Compound 319, 5-((2-methoxypyrimidin-5-yl)amino)-1,3-dimethyl-1,3-dihydro-2H-benzo[d] imidazole-2-one]	0.1 to 100
CN(CC(F)(F)F)c1ccc(Nc2ccc3c(c2)OCC(=O)N3C)cc1 [Compound 134]	0.1 to 100
CN1Cc2cc(Nc3ccc(N4CC5(CCC5)C4)cc3)ccc2C1=O [Compound 244, 5-((4-(2-azaspiro[3.3]heptan-2-yl)phenyl)amino)-2-methylisoindolin-1-one]	0.1 to 100
Cc1cc(Nc2ccc3c(c2)OCC(=O)N3C)cnc1N1CC(C)OC(C)C1 (centres unmarked) [Compound 143, 7-((6-(2,6-dimethylmorpholino)-5-methylpyridin-3-yl)amino)-4-methyl-2H-benzo[b][1,4]oxazin-3(4H)-one]	0.1 to 100
CC1CN(c2ccc(Nc3ccc4c(c3)nnn4C)cc2)CC(C)O1 (centres unmarked) [Compound 207, N-(4-(2,6-dimethylmorpholino)phenyl)-1-methyl-1H-benzo[d][1,2,3]triazol-5-amine]	0.1 to 100
CC1CCC(N2Cc3cc(Nc4ccc(N5CCC(C(F)(F)F)CC5)cc4)ccc3C2=O)CC1 (centres unmarked) [Compound 221, 2-(4-methylcyclohexyl)-5-((4-(4-(trifluoromethyl)piperidin-1-yl)phenyl)amino)isoindolin-1-one]	0.1 to 100
CC1CN(c2ccc(Nc3ccc4oc(=O)n(C)c4c3)cc2)CC(C)O1 (centres unmarked) [Compound 420, 5-((4-(2,6-dimethylmorpholino)phenyl)amino)-3-methylbenzo[d]oxazol-2(3H)-one]	0.1 to 100
CCN(CCC(=O)OC)c1ccc(Nc2ccc3c(c2)n(C)c(=O)n3C)cc1 [Compound 361, methyl 3-((4-((1,3-dimethyl-2-oxo-2,3-dihydro-1H-benzo[d]imidazol-5-yl)amino)phenyl)(ethyl)amino)propanoate]	100 to 1000
Cn1cncc1CN1Cc2cc(Nc3ccc(N4CCC(C(F)(F)F)CC4)cc3)ccc2C1=O [Compound 248, 2-((1-methyl-1H-imidazol-5-yl)methyl)-5-((4-(4-(trifluoromethyl)piperidin-1-yl)phenyl)amino)isoindolin-1-one]	0.1 to 100
CC1CCN(c2ccc(Nc3ccc4ncn(C)c4c3)cc2)CC1 [Compound 270, 1-methyl-N-(4-(4-methylpiperidin-1-yl)phenyl)-1H-benzo[d]imidazol-6-amine]	0.1 to 100
CCN1Cc2cc(Nc3cc(F)c(N4CCC(C)CC4)c(F)c3)ccc2C1=O [Compound 193, 5-((3,5-difluoro-4-(4-methylpiperidin-1-yl)phenyl)amino)-2-ethylisoindolin-1-one]	0.1 to 100
CC(C)N1Cc2cc(Nc3ccc(N4CCC(C(F)(F)F)CC4)cc3)ccc2C1=O [Compound 210, 2-isopropyl-5-((4-(4-(trifluoromethyl)piperidin-1-yl)phenyl)amino) isoindolin-1-one]	0.1 to 100
Cc1cc(Nc2ccc3c(c2)OCC(=O)N3)ccc1N1CC2CCC(C1)O2 [Compound 146, 7-((4-(8-oxa-3-azabicyclo[3.2.1]octan-3-yl)-3-methylphenyl)amino)-2H-benzo[b][1,4]oxazin-3(4H)-one]	0.1 to 100
COc1ccc(Nc2ccc3c(c2)n(C)c(=O)n3C)cn1 [Compound 320, 5-((6-methoxypyridin-3-yl)amino)-1,3-dimethyl-1,3-dihydro-2H-benzo[d] imidazol-2-one]	0.1 to 100
CC(C)(C)NC(=O)N1Cc2ccc(Nc3ccc(N4CCC(C(F)(F)F)CC4)cc3)cc2C1 [Compound 205, N-(tert-butyl)-5-((4-(4-(trifluoromethyl)piperidin-1-yl)phenyl)amino) isoindoline-2-carboxamide]	0.1 to 100
CN1Cc2cc(Nc3ccc(N4CCC(C(F)(F)F)CC4)cc3)cc(Cl)c2C1=O [Compound 203, 7-chloro-2-methyl-5-((4-(4-(trifluoromethyl)piperidin-1-yl)phenyl)amino) isoindolin-1-one]	0.1 to 100
CN1C(=O)COc2cc(Nc3cc(F)c(N4CCC(O)(C(F)(F)F)CC4)c(F)c3)ccc21 [Compound 160, 7-((3,5-difluoro-4-(4-hydroxy-4-(trifluoromethyl)piperidin-1-yl)phenyl)amino)-4-methyl-2H-benzo[b][1,4]oxazin-3(4H)-one]	0.1 to 100
CCCCCN(CC)c1ccc(Nc2ccc3c(c2)OCC(=O)N3C)cc1 [Compound 30, 7-((4-(ethyl(pentyl)amino)phenyl)amino)-4-methyl-2H-benzo[b][1,4]oxazin-3(4H)-one]	0.1 to 100
Cn1c(=O)oc2cc(Nc3ccc4c(c3)n(C)c(=O)n4C)ccc21 [Compound 344, 6-((1,3-dimethyl-2-oxo-2,3-dihydro-1H-benzo[d]imidazol-5-yl)amino)-3-methylbenzo[d]oxazol-2(3H)-one]	0.1 to 100
Cc1cc(N2CCC(C(F)(F)F)CC2)ccc1Nc1ccc2c(c1)OCC(=O)N2 [Compound 100, 7-((2-methyl-4-(4-(trifluoromethyl)piperidin-1-yl)phenyl)amino)-2H-benzo[b][1,4]oxazin-3(4H)-one]	0.1 to 100
CC1CCN(c2ccc(Nc3cc(Cl)c4c(c3)CN(C(=O)C(F)(F)F)C4)cc2)CC1 [Compound 253, 1-(4-chloro-6-((4-(4-methylpiperidin-1-yl)phenyl)amino)isoindolin-2-yl)-2,2,2-trifluoroethan-1-one]	0.1 to 100

same assay, conditions: Homo sapiens; HT-1080 cells treated with RSL3; 3-fold, 10-point dilution, 1.1 μM highest concentration; Table 3; read-out: EC50 (nM), ferroptosis inhibitory activity

Compound	EC50 [nM]
Cc1cc(N2CCC(C(F)(F)F)C2)ccc1Nc1ccc2c(c1)OCCC(=O)N2 (centres unmarked) [Compound 628, 8-((2-methyl-4-(3-(trifluoromethyl)pyrrolidin-1-yl)phenyl)amino)-2,3-dihydrobenzo[b][1,4]oxazepin-4(5H)-one]	0.1 to 100
Cc1cc(N2CCC(O)(C(F)(F)F)C2)ccc1Nc1ccc2c(c1)OCC(=O)N2 (centres unmarked) [Compound 617, 7-((4-(3-hydroxy-3-(trifluoromethyl)pyrrolidin-1-yl)-2-methylphenyl)amino)-2H-benzo[b][1,4]oxazin-3(4H)-one]	0.1 to 100
Cc1nc(N2CCC(C(F)(F)F)CC2)ccc1Nc1ccc2c(c1)OCC(=O)N2 [Compound 489, 7-((2-methyl-6-(4-(trifluoromethyl)piperidin-1-yl)pyridin-3-yl)amino)-2H-benzo[b][1,4]oxazin-3(4H)-one]	0.1 to 100
Cc1cc(N2CC(OC(F)(F)F)C2)ccc1Nc1ccc2c(c1)OCC(=O)N2 [Compound 621, 7-((2-methyl-4-(3-(trifluoromethoxy)azetidin-1-yl)phenyl)amino)-2H-benzo[b][1,4]oxazin-3(4H)-one]	0.1 to 100
Cc1cc(N2CCC(C(F)(F)F)CC2)ccc1Nc1ccc2c(c1)CN(C)C(=O)N2 [Compound 566, 3-methyl-6-({2-methyl-4-[4-(trifluoromethyl)piperidin-1-yl]phenyl}amino)-1,4-dihydroquinazolin-2-one]	0.1 to 100
COCCn1c(=O)n(C)c2ccc(Nc3ccc(N4CCC(C(F)(F)F)C4)cc3C)cc21 (centres unmarked) [Compound 620, 3-(2-methoxyethyl)-1-methyl-5-((2-methyl-4-(3-(trifluoromethyl)pyrrolidin-1-yl)phenyl)amino)-1,3-dihydro-2H-benzo[d]imidazol-2-one]	0.1 to 100
COC1(C(F)(F)F)CCN(c2ccc(Nc3ccc4c(c3)OCC(=O)N4)c(C)n2)CC1 [Compound 503, 7-((6-(4-methoxy-4-(trifluoromethyl)piperidin-1-yl)-2-methylpyridin-3-yl)amino)-2H-benzo[b][1,4]oxazin-3(4H)-one]	0.1 to 100
Cc1cc(N2CC(C(F)(F)F)C2)ccc1Nc1ccc2c(c1)OCCC(=O)N2 [Compound 590]	0.1 to 100
